Target: T1, D-glucose/D-galactose-binding protein (GGBP), mutant form GGBP/H152C labeled with BADAN (Escherichia coli, UniProt P0AEE5, H175C)
T1 construct: gene mglB; GGBP/H152C-BADAN (BADAN linked to Cys 152)
Assay: BADAN fluorescence titration (Kd by nonlinear regression); stopped-flow binding kinetics

T1 sequence (P0AEE5 24-332 H175C limits assumed): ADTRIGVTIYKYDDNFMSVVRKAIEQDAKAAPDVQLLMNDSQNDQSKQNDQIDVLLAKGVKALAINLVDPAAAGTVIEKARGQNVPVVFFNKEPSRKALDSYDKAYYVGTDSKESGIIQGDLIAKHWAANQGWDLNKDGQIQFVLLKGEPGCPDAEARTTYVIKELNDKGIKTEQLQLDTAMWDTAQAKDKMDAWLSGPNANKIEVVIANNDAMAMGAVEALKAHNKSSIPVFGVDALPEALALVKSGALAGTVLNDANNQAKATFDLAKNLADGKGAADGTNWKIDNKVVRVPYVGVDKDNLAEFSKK

SMILES: OC[C@H]1OC(O)[C@H](O)[C@@H](O)[C@@H]1O (stereo partly shown) [Glc]
- Kd: 8.5 µM

— article PMC3970809, “Spectral characteristics of the mutant form GGBP/H152C of D-glucose/D-galactose-binding protein labeled with fluorescent dye BADAN: influence of external factors” (PeerJ, 2014)
